In patent publication US5306496A, “Antibiotics NK374186A, NK374186B, NK374186B3 and NK374186C3, process for producing the same, and use of the same” (Nippon Kayaku Kabushiki Kaisha, priority 1991, dated 1994):
In brackets after ≈: the same amount, converted by molar mass.

Assays:
[1] = test system: transplanted section/host reaction (GVH); assay: Transplanted section/host reaction (GVH), spleen weighing method; assay type: in vivo, BDF mouse; conditions: for Spleen/total body weight ± S.D. / Index (spleen/total body weight): subcutaneous, 3 days; for Spleen/total body weight ± S.D.: seventh day after transplantation; for Index (spleen/total body weight): untreated = 1.00
Experimental: This test is carried out in accordance with the spleen weighing method of Ford et al. [Ford, W. L., et al., Handbook of Experimental Immunology 30 (ed. by Weir, D. M.), Blackwell Scientific Publications, (1978), page 1]. 5×10^6 spleen cells obtained from a donor C57BL/6 mouse (male, aged 8 weeks) are transplanted into the peritoneal cavity of a BDF mouse (male, aged 7 weeks) which is the Fl hybrid receptor. At the same time, NK374186 and a control drug are dissolved in a solvent (0.25 % gum arabic) and subcutaneously injected into the dorsum of the receptor mouse. As a control, the solvent alone is also subcutaneously injected into the dorsum of the mouse. The same administration is effected on the next day and on the following day. On the seventh day after the transplantation, the spleen of the animal is weighed.

mammalian cells = assay: Suppressing the growth of mammalian cells, in words; assay type: cell-based
[2] = test system: mouse lymphoblast formation with Con A (T cells); assay: Mouse lymphoblast formation with Con A ([^3 H]-thymidine uptake); assay type: cell-based, BALB/C mouse; conditions: Con A 5 μg/ml, 72 hours, control = 100
Experimental: (§1) An RPMI 1640 medium containing 20% of fetal calf serum, 25 mM of Hepes buffer, 100 μg/ml of streptomycin and 100 U/ml of penicillin G is used. The incubation is carried out in a 96-well flat-bottomed microplate (COSTAR). As a mitogen, lipopolysaccharide (LPS) and concanavalin A (Con A) are used respectively at final concentrations of 100 μg/ml and 5 μg/ml.
(§2) The spleen of a BALB/C mouse (female,>20 weeks in age) is taken out and a single-cell suspension is prepared. After removing erythrocytes by hyper shock, the suspension is used as such for the treatment with LPS. For the treatment with Con A, on the other hand, the suspension is passed through a Nylon Fiber (a product of Wako Pure Chemicals, Inc.) for separating T cells. 2×10^5 /well of the spleen cells and each test compound of the concentration as specified above are added to thereby give a total volume of 0.2 ml/well, followed by incubation for 72 hours. 8 hours before the completion of the incubation, 37 KBq/well of [^3 H]-thymidine is added and the thymidine uptake in the cells is measured. The effect is evaluated based on the ratio of the [^3 H]-thymidine uptake of a test group to that of a control group ["Meneki Jikken Sosa-ho (Procedures of Immunological Tests)", ed. by Japan Assoc. of Immunol., pages 2267-2276].

2780^AD = assay: Cell growth suppressing activity (MTT method), adriamycin-resistant strain; assay type: cell-based, human; conditions: adriamycin-resistant strain obtained from A2780, 2 days
Experimental: (§3) Cells are incubated in an RPMI 1640 medium containing 10% of fetal calf serum at 37° C. under 5% of CO2. Then these cells are sowed in a 96-well plate and pre-incubated for 1 day, followed by the addition of each test compound. The treatment with the test compound was carried out for 2 days and the activity of suppressing the cell growth was evaluated by the MTT method.

CDF-1 mice = assay: Toxicity, repeated intraperitoneal administration; assay type: in vivo; conditions: 100 mg/kg intraperitoneal once a day for 10 days
Experimental: 100 mg/kg of NK374186A and NK374186B are intraperitoneally administered to CDF-1 mice (male, aged 8 weeks) repetitively once a day for 10 days. Each test compound is administered in the form of a solution in 3.5% DMSO+6.5% Tween+90% physiological saline.

Solubility = assay type: physicochemical
[3] = test system: Bacilli, Staphylococcus and Micrococcus; assay: Antibacterial activity, summary in words; assay type: cell-based; conditions: on Bacilli, agar dilution method
Experimental: (§4) The antibacterial and antifungal activities of each antibiotic are expressed in minimum inhibitory concentration (MIC) determined by the agar dilution method. In the antibacterial activity test, each test microorganism is inoculated onto a Muller/Hinton medium and cultured therein at 37° C. overnight to observe the growth of the microorganism. In the antifungal activity test, each test microorganism is inoculated onto a Czapek medium and cultured therein at 27° C. for 2 to 3 days, followed by the observation of the growth of the microorganism.

Li-7 = assay: Cell growth suppressing activity (MTT method); assay type: cell-based; conditions: Li-7, human hepatic cancer, 2 days
Experimental: as §3

A2780 = assay: Cell growth suppressing activity (MTT method); assay type: cell-based; conditions: A2780, human ovarian cancer, 2 days
Experimental: as §3

[4] = test system: Candida albicans IFO 1385; assay: Antifungal activity, MIC by agar dilution method; assay type: cell-based; conditions: Czapek medium, 27° C., 2 to 3 days
Experimental: as §4

[5] = test system: Rhizopus hanguchao IFO 4749; assay: Antifungal activity, MIC by agar dilution method; assay type: cell-based; conditions: Czapek medium, 27° C., 2 to 3 days
Experimental: as §4

Mucor javanicus IFO 4569 = assay: Antifungal activity, MIC by agar dilution method; assay type: cell-based; conditions: Czapek medium, 27° C., 2 to 3 days
Experimental: as §4

[6] = test system: Penicillium chrysogenum IFO 8645; assay: Antifungal activity, MIC by agar dilution method; assay type: cell-based; conditions: Czapek medium, 27° C., 2 to 3 days
Experimental: as §4

[7] = test system: Aspergillus niger IFO 4407; assay: Antifungal activity, MIC by agar dilution method; assay type: cell-based; conditions: Czapek medium, 27° C., 2 to 3 days
Experimental: as §4

[8] = test system: Trycophyton mentagrophytes IFO 5466; assay: Antifungal activity, MIC by agar dilution method; assay type: cell-based; conditions: Czapek medium, 27° C., 2 to 3 days
Experimental: as §4

Botrytis fabae IFO 6183 = assay: Antifungal activity, MIC by agar dilution method; assay type: cell-based; conditions: Czapek medium, 27° C., 2 to 3 days
Experimental: as §4

Li-7, A2780 and 2780^AD = assay: Cell growth suppressing activity (MTT method), all cell lines, in words; assay type: cell-based, human; conditions: each cell line
Experimental: as §3

[9] = test system: Staphylococcus aureus FDA 209P; assay: Antibacterial activity, MIC by agar dilution method; assay type: cell-based; conditions: Muller/Hinton medium, 37° C., overnight
Experimental: as §4

[10] = test system: Bacillus subtilis ATCC 6633; assay: as above; assay type: cell-based; conditions: Muller/Hinton medium, 37° C., overnight
Experimental: as §4

[11] = test system: Bacillus subtilis IAM 1072; assay: as above; assay type: cell-based; conditions: Muller/Hinton medium, 37° C., overnight
Experimental: as §4

Escherichia coli K-12 = assay: as above; assay type: cell-based; conditions: Muller/Hinton medium, 37° C., overnight
Experimental: as §4

[12] = test system: Micrococcus flavus ATCC 10240; assay: as above; assay type: cell-based; conditions: Muller/Hinton medium, 37° C., overnight
Experimental: as §4

Escherichia coli NIHJ = assay: as above; assay type: cell-based; conditions: Muller/Hinton medium, 37° C., overnight
Experimental: as §4

[13] = as above; assay type: cell-based; conditions: Mycobacterium luteus ATCC 9341; Muller/Hinton medium, 37° C., overnight
Experimental: as §4

[14] = test system: Bacillus megaterium ATCC 14945; assay: as above; assay type: cell-based; conditions: Muller/Hinton medium, 37° C., overnight
Experimental: as §4

[15] = test system: mouse lymphoblast formation with LPS (spleen cells); assay: Mouse lymphoblast formation with LPS ([^3 H]-thymidine uptake); assay type: cell-based, BALB/C mouse; conditions: 72 hours, control = 100
Experimental: as §1, §2

[16] = test system: mouse lymphoblast formation with LPS and Con A; assay: Mouse lymphoblast formation with LPS and Con A, summary in words; assay type: cell-based, BALB/C mouse
Experimental: as §1, §2

For `C=CC(C)(C)[C@H](NC(=O)[C@H](C)[C@H](O)[C@H](C)[C@H](O)CCCCCCCCCCCCC)C(=O)N[C@H](C(=O)N[C@@H](C=O)C(=O)O)[C@@H](C)O` [NK374186B], the “Spleen/total body weight ± S.D.” value ([1]; 0.5 mg/kg) was 8.24 ± 1.54 ×10^-3, the “Index (spleen/total body weight)” value ([1]; 0.5 mg/kg) was 1.74 and the “Spleen/total body weight ± S.D.” value ([1]; 5 mg/kg) was 11.32 ± 3.61 ×10^-3. For the same compound, the “Index (spleen/total body weight)” value ([1]; 5 mg/kg, * printed) was 2.40, the “Spleen/total body weight ± S.D.” value ([1]; 50 mg/kg) was 12.63 ± 3.37 ×10^-3 and the “Index (spleen/total body weight)” value ([1]; 50 mg/kg, * (A), ** (B) printed) was 2.67. The GVH reaction ([1]; in words) was “significantly enhanced”, the “spleen/total body weight ratio” value ([1]; in words) was “increased depending on the dose” and the “activity of suppressing the growth of mammalian cells” value (mammalian cells) was “weak activity of suppressing the growth of mammalian cells”. The “Function index, Con A” value ([2]; 0.1 μg/ml) was 133.7%, the “Function index, Con A” value ([2]; 1 μg/ml) was 168.8% and the “Function index, Con A” value ([2]; 10 μg/ml) was 111.6%. For the same compound, the “Function index, Con A” value ([2]; 100 μg/ml) was 31.5%, the IC50 (2780^AD) was 33 µg/mL (≈ 50.3 µM) and the death of mice (CDF-1 mice) was “none of these compounds causes the death of mice”. The toxicity (CDF-1 mice) was “low toxicity”, the clinical conditions (CDF-1 mice; versus solvent control group) was “no difference from those of the solvent control group” and the solubility (Solubility) was “soluble in lower alcohols, chloroform and ethyl acetate”. The antibacterial activity [3] was “potent antibacterial activity on Bacilli, Staphylococcus and Micrococcus”, the IC50 (Li-7) was 7.0 µg/mL (≈ 10.7 µM) and the IC50 (A2780) was 6.6 µg/mL (≈ 10.1 µM). The MIC [4] was > 100 µg/mL, the MIC [5] was > 100 µg/mL and the MIC (Mucor javanicus IFO 4569) was > 100 µg/mL. For the same compound, the MIC [6] was > 100 µg/mL, the MIC [7] was > 100 µg/mL and the MIC [8] was > 100 µg/mL. For the same compound, the MIC (Botrytis fabae IFO 6183) was > 100 µg/mL, the cell growth suppression (Li-7, A2780 and 2780^AD) was “suppress the growth of each cell line” and the MIC [9] was 3.13 µg/mL (≈ 4.77 µM). For the same compound, the MIC [10] was > 100 µg/mL, the MIC [11] was 6.25 µg/mL (≈ 9.53 µM) and the MIC (Escherichia coli K-12) was > 100 µg/mL. For the same compound, the MIC [12] was 3.13 µg/mL (≈ 4.77 µM), the MIC (Escherichia coli NIHJ) was > 100 µg/mL and the MIC [13] was > 100 µg/mL. The MIC [14] was 6.25 µg/mL (≈ 9.53 µM), the “Function index, LPS” value ([15]; 0.1 μg/ml, LPS 100 μg/ml) was 156.3% and the “Function index, LPS” value ([15]; 1 μg/ml, LPS 100 μg/ml) was 156.3%. The “Function index, LPS” value ([15]; 10 μg/ml, LPS 100 μg/ml) was 94.7%, the “Function index, LPS” value ([15]; 100 μg/ml) was 0.8% and the lymphoblast formation ([16]; at a concentration of 10 μg/ml or above) was “potently suppress the same at a concentration of 10 μg/ml or above”. The lymphoblast formation ([16]; at a lower concentration) was “promote the lymphoblast formation with LPS and Con A at a lower concentration”.
